Assay [1] deals with human epidermal carcinoma A431 cell line. The experiment in a line: SRB proliferation assay, A431 cells. The settings on record: A-431, SRB, 72 h, read-out: IC50 A431. It counts as cell-based. How it is done: (§1) Cell lines: human epidermal carcinoma A431 cell line and human non-small cell lung cancer NCI-H1975 cell line was purchased from the American Standard Biology Collection Center (ATCC).
(§2) Methods: sulforhodamine B (SRB) method, which was as follows: certain number of different tumor cells in logarithmic growth phase were inoculated on 96-well culture plates. After cultured for 24 h to cell adherence, different concentrations of the test compounds of the invention were added. Each concentration was provided with three wells, and a corresponding concentration of DMSO solvent control and a cell-free zeroing well were set. After the cells were treated with the medicine for 72 h, the culture medium was discarded and 100 μL of 10% pre-cooled trichloroacetic acid solution was added to fix the cells. After placed for 1 h at 4° C., it was washed for 5 times with distilled water and dried naturally. Then 100 μL SRB (4 mg/mL) (Sigma) solution was added and stained for 15 min at room temperature. The staining solution was discarded and washed for 5 times with 1% glacial acetic acid and dried. Finally, 150 μL of 10 mM Tris solution (pH 10.5) was added and the OD value was measured at 515 nm with adjustable wavelength microplate enzyme-labeled instrument (VERSAmax™, Molecular Device Corporation, Sunnyvale, Calif., USA).
Background: In SRB staining, fixed cells bind dye roughly in proportion to their protein.

Assay [2] has as its target T1, EGFR^T790M/L858R (Homo sapiens, UniProt P00533, L858R/T790M).
T1 construct: purchased Millipore
The experiment in a line: kinase inhibitory activity test (ELISA), EGFR^T790M/L858R. The settings on record: for IC50: ELISA, ATP 5 μM, 1 hour at 37° C.; for kinase inhibitory activity (in words): summary of Table 1. It counts as biochemical. How it is done: (§3) The enzyme substrate poly (glutamic acid, tyrosine)4:1 (Sigma) was diluted with potassium-free PBS (10 mM sodium phosphate buffer, 150 mM NaCl, pH 7.2-7.4) to 20 μg/mL, plate coated with 125 μL/well, reacted for 12-16 hours at 37° C. After the liquid in the wells was discarded, the plates were washed three times with 200 μL/well of T-PBS (PBS containing 0.1% Tween-20), and each time for 5 minutes, and then dried for 1-2 hours in an oven at 37° C. 50 μL of ATP solution diluted with reaction buffer (50 mM HEPES pH 7.4, 50 mM MgCl2, 5 mM MnCl2, 0.2 mM Na3VO4, 1 mM DTT) was added into each well and the final concentration was 5 μM. The compounds were diluted with 1% DMSO to suitable concentrations and were added at 10 μL/well. […] The above reaction system was reacted for 1 hour at 37° C. shaking table (100 rpm). Control wells with no enzyme and control wells with DMSO solvent were set in each experiment. After the reaction was completed, the plates were washed three times with T-PBS. The anti-phosphotyrosine primary antibody PY99 (Santa Cruz) was added at 100 μL/well and the antibody was diluted with T-PBS containing BSA 5 mg/mL by 1:1000. The mixture was reacted for 0.5 h at 37° C. shaking table, the plates were washed three times with T-PBS. The secondary antibody which was horseradish peroxidase-labeled goat anti-mouse IgG was added at 100 μL/well (the antibody was diluted with T-PBS containing BSA 5 mg/mL by 1:2000). The mixture was reacted for 0.5 h at 37° C. shaking table, the plates were washed three times with T-PBS. 2 l/mL of OPD coloring solution was added at 100 μL/well (diluted with 0.1 M citric acid-sodium citrate buffer (pH=5.4) containing 0.03% H2O2) and dark reacted for 1 to 10 minutes at 25° C. 2 M H2SO4 was added at 50 μL/well to terminate the reaction. Reading was carried out with an adjustable wavelength microplate enzyme-labeled instrument SPECTRA MAX 190 at 490 nm wavelength.
(§4) The IC50 value was calculated by the four-parameter fitting of the suppression curve.
In general terms: An ELISA detects its analyte on a solid surface through an enzyme-linked reagent.

Assay [3] concerns the target T2, EGFR^wt (Homo sapiens, UniProt P00533).
T2 construct: purchased Millipore
The experiment in a line: kinase inhibitory activity test (ELISA), EGFR^WT. Type of assay: biochemical. The settings on record: ATP 5 μM, 1 hour at 37° C. How it is done:
as §3, §4

The target of assay [4] is T3, IGF-1R (Homo sapiens, UniProt P08069).
T3 construct: purchased Millipore
Kind of assay: kinase inhibitory activity test (ELISA), IGF-1R. It counts as biochemical. The settings on record: ATP 5 μM, 1 hour at 37° C. How it is done:
The enzyme substrate poly (glutamic acid, tyrosine)4:1 (Sigma) was diluted with potassium-free PBS (10 mM sodium phosphate buffer, 150 mM NaCl, pH 7.2-7.4) to 20 μg/mL, plate coated with 125 μL/well, reacted for 12-16 hours at 37° C. After the liquid in the wells was discarded, the plates were washed three times with 200 μL/well of T-PBS (PBS containing 0.1% Tween-20), and each time for 5 minutes, and then dried for 1-2 hours in an oven at 37° C. 50 μL of ATP solution diluted with reaction buffer (50 mM HEPES pH 7.4, 50 mM MgCl2, 5 mM MnCl2, 0.2 mM Na3VO4, 1 mM DTT) was added into each well and the final concentration was 5 μM. The compounds were diluted with 1% DMSO to suitable concentrations and were added at 10 μL/well. Then different types of tyrosine kinase proteins (including EGFR^wt, EGFR^T790M/L858R and IGF-1R, purchased from Millipore) diluted with 40 μL of reaction buffer were added. The above reaction system was reacted for 1 hour at 37° C. shaking table (100 rpm). Control wells with no enzyme and control wells with DMSO solvent were set in each experiment. After the reaction was completed, the plates were washed three times with T-PBS. The anti-phosphotyrosine primary antibody PY99 (Santa Cruz) was added at 100 μL/well and the antibody was diluted with T-PBS containing BSA 5 mg/mL by 1:1000. The mixture was reacted for 0.5 h at 37° C. shaking table, the plates were washed three times with T-PBS. The secondary antibody which was horseradish peroxidase-labeled goat anti-mouse IgG was added at 100 μL/well (the antibody was diluted with T-PBS containing BSA 5 mg/mL by 1:2000). The mixture was reacted for 0.5 h at 37° C. shaking table, the plates were washed three times with T-PBS. 2 l/mL of OPD coloring solution was added at 100 μL/well (diluted with 0.1 M citric acid-sodium citrate buffer (pH=5.4) containing 0.03% H2O2) and dark reacted for 1 to 10 minutes at 25° C. 2 M H2SO4 was added at 50 μL/well to terminate the reaction. Reading was carried out with an adjustable wavelength microplate enzyme-labeled instrument SPECTRA MAX 190 at 490 nm wavelength.
as §4

The subject of assay [5] is human non-small cell lung cancer NCI-H1975 cell line. Kind of assay: SRB proliferation assay, NCI-H1975 cells. Type of assay: cell-based. As to conditions: NCI-H1975, SRB, 72 h, read-out: IC50 NCI-H1975. How it is done:
as §1
as §2, with “USA). […] Based on the inhibitory effect of the 2-aminopyrimidine compounds on the growth of these cells, the half maximal inhibitory concentration (IC50) values were calculated, as shown in Table 2.” for “USA).”

These results are taken from patent US10059694B2, “2-aminopyrimidine compound and pharmaceutical composition and use thereof” (Shanghai Institute of Materia Medica, Chinese Academy of …, priority 2014, dated 2018).

T2 sequence (P00533 25-1210): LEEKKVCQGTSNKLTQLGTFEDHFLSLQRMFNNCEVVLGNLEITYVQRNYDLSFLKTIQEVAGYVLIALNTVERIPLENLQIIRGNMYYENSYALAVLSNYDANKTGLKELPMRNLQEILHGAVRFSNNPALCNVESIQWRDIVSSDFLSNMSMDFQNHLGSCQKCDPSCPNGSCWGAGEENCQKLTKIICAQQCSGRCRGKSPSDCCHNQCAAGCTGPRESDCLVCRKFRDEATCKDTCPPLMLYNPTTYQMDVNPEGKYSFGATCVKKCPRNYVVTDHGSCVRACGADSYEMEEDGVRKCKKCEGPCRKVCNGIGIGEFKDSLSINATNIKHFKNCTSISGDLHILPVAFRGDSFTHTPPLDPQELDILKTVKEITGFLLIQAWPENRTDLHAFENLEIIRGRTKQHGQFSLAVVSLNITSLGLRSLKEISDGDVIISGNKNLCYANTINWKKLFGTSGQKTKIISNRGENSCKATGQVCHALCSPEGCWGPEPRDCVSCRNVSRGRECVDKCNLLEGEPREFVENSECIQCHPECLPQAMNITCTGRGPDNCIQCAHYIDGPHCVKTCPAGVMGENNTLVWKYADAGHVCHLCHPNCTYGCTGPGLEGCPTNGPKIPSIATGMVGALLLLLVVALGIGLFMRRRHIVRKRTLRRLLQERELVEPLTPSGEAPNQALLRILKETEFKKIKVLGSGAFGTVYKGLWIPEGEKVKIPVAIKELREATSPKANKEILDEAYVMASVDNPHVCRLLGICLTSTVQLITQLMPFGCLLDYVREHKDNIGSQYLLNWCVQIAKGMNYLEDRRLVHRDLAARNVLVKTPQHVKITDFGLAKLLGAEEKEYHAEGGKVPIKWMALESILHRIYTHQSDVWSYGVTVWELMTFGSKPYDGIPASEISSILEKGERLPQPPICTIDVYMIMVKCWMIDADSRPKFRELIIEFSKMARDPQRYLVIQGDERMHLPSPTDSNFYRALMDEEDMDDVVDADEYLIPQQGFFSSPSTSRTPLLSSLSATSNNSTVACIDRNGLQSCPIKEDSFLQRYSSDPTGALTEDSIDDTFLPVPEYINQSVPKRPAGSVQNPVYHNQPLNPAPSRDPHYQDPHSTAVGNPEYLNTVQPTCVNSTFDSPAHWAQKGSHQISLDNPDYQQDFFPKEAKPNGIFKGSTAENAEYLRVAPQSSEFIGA
T1 sequence (P00533 25-1210 T790M/L858R): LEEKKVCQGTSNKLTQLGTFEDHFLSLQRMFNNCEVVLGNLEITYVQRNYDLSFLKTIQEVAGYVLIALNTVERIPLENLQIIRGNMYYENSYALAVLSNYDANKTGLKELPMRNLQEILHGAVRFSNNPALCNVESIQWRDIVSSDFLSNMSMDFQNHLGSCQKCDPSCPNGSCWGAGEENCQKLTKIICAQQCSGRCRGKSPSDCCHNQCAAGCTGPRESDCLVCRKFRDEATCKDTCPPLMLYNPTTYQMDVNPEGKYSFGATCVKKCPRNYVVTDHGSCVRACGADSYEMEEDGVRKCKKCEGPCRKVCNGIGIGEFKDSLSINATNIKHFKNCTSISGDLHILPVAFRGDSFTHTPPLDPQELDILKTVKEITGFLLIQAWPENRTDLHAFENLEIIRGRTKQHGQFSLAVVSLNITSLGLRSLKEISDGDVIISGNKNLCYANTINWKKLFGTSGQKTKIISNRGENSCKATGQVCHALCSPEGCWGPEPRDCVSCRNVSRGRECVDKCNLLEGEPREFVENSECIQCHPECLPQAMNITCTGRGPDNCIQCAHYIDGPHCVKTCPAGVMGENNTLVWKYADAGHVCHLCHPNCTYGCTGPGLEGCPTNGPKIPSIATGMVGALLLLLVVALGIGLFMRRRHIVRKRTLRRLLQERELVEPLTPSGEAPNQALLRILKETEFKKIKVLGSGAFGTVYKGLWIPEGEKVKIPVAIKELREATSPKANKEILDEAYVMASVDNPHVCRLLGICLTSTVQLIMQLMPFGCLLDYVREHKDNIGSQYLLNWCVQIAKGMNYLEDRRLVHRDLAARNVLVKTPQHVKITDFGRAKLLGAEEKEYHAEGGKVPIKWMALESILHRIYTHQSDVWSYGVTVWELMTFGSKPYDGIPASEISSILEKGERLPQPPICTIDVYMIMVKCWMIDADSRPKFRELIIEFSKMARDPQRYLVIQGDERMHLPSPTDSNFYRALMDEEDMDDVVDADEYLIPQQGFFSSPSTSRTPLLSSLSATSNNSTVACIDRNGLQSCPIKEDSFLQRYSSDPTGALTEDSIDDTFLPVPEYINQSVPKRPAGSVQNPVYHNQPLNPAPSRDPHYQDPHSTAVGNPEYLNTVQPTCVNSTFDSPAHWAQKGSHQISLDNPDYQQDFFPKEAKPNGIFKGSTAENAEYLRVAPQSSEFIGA
T3 sequence (P08069 31-1367): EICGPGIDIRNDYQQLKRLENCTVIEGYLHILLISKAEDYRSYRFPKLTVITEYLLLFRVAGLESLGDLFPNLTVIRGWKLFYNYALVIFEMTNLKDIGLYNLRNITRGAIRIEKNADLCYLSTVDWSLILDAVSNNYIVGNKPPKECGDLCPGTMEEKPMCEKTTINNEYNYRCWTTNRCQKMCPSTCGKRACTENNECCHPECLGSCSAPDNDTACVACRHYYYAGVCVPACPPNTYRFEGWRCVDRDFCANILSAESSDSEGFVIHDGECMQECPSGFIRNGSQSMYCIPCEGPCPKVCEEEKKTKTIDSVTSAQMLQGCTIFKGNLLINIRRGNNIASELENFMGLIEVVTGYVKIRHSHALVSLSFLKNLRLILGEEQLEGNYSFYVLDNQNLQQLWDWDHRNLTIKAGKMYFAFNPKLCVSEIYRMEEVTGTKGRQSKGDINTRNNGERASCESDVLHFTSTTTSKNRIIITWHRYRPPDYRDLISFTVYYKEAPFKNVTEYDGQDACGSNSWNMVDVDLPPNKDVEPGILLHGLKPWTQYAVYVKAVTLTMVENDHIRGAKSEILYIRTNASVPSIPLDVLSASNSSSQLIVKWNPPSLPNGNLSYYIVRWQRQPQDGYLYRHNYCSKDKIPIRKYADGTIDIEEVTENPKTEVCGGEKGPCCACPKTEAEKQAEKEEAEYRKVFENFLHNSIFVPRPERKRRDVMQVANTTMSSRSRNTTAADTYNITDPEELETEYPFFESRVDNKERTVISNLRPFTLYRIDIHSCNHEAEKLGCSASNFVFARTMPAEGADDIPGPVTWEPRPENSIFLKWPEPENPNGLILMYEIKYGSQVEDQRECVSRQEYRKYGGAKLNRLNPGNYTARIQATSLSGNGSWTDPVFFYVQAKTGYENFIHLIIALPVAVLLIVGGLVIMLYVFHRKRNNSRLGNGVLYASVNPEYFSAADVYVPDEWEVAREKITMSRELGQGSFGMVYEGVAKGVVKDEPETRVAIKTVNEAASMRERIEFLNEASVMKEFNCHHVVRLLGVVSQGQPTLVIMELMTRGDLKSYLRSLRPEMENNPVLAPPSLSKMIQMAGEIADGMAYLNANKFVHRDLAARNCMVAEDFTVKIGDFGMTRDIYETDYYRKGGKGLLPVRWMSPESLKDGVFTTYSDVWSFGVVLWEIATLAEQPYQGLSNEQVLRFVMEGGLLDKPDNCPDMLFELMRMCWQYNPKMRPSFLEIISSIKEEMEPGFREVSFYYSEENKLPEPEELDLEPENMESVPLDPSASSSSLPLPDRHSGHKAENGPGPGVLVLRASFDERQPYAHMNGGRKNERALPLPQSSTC

A word on the IC50: it is the concentration needed to halve the response being measured. `CCOc1ccc(NC(=O)/C=C/CN(C)C)cc1Nc1ncc(Br)c(Nc2ccc3ccccc3c2)n1` [CCB145374, (E)-N-((3-((5-bromo-4-((naphthalen-2-yl)amino))pyrimidin-2-yl)amino)-4-ethoxyphenyl)-4-(dimethylamino)-2-butenamide]: the IC50 amounted to 4.47 µM in assay [1]; 0.0113 µM in assay [2]; 2.83 µM in assay [3]; 0.0864 µM in assay [4]; 2.82 µM in assay [5].
The matching figures for `C=CC(=O)Nc1cc(CN2CCN(C)CC2)cc(Nc2ncc(Cl)c(Nc3ccc4ccccc4c3)n2)c1` [CCB120103, N-((3-((5-chloro-4-((naphthalene-2-yl)amino))pyrimidine-2-yl)amino)-5-((4-methylpiperazine-1-yl)methyl)phenyl)acrylamide]: 1.02 µM, 0.0031 µM, 0.102 µM, 0.0733 µM and 0.131 µM.
For `C=CC(=O)Nc1cc(CN(C)CCN(C)C)cc(Nc2ncc(Cl)c(Nc3ccc4ccccc4c3)n2)c1` [CCB120069, N-((3-((5-chloro-4-((naphthalen-2-yl)amino))pyrimidin-2-yl)amino)-5-((N-methyl-N-dimethylaminoethyl)methylamine)phenyl)acrylamide], the IC50 worked out at 0.535 µM in assay [1]; 0.0039 µM in assay [2]; 0.132 µM in assay [3]; 0.009 µM in assay [4]; 0.147 µM in assay [5]. Besides, in assay [2], the “kinase inhibitory activity (in words)” value is “potent”.
With `C=CC(=O)Nc1cc(Nc2ncc(Cl)c(Nc3ccc4ccccc4c3)n2)c(OC)cc1N1CCCN(C)CC1` [CCB120120, N-((5-((5-chloro-4-((naphthalen-2-yl)amino))pyrimidin-2-yl)amino)-2-(4-methylhomopiperazinyl)-4-methoxyphenyl)acrylamide], the IC50 was 0.26 µM in assay [1]; 0.0006 µM in assay [2]; 0.0317 µM in assay [3]; 0.0183 µM in assay [4]; 0.001 to 0.016 µM in assay [5]. In assay [2], the “kinase inhibitory activity (in words)” value is recorded as “potent”.
With `Cc1cc(NC(=O)/C=C/CN(C)C)cc(Nc2ncc(Br)c(Nc3ccc4ccccc4c3)n2)c1` [CCB145342, (E)-N-((3-((5-bromo-4-((naphthalen-2-yl)amino))pyrimidin-2-yl)amino)-5-methylphenyl)-4-(dimethylamino)-2-butenamide], the IC50 came to 0.942 µM in assay [1]; 0.0442 µM in assay [2]; 1.88 µM in assay [3]; 0.127 µM in assay [4]; 1.27 µM in assay [5].
The like results for `CN(C)C/C=C/C(=O)Nc1ccc(F)c(Nc2ncc(Br)c(Nc3ccc4ccccc4c3)n2)c1` [CCB145330, (E)-N-((3-((5-bromo-4-((naphthalen-2-yl)amino))pyrimidin-2-yl)amino)-4-fluorophenyl)-4-(dimethylamino)-2-butenamide] were, in that order, 12.8 µM, 0.0324 µM, 4.15 µM, 0.146 µM and 0.948 µM.
In assay [4], `C=CC(=O)Nc1cc(Nc2nccc(-c3cn(C)c4ccccc34)n2)c(OC)cc1N(C)CCN(C)C` [AZD9291, reference compound] came in with an IC50 of more than 1 µM.
On to `C=CC(=O)Nc1cc(Nc2ncc(Cl)c(Nc3ccc4ccccc4c3)n2)c(OC)cc1N(C)CCNC` [CCB4580030, N-((5-((5-chloro-4-(naphthalene-2-ylamino)pyrimidine-2-yl)amino)-4-methoxy-2-(methyl(2-methylamino)ethyl)amino)phenyl)acrylamide], for which the half-maximal inhibitory concentration (IC50) in assay [2] worked out at 0.0022 µM; in assay [3], 0.0031 µM; in assay [4], 0.0078 µM.
For `COc1ccc(NC(=O)/C=C/CN2CCOCC2)cc1Nc1ncc(Cl)c(Nc2ccc3ccccc3c2)n1` [CCB120025, (E)-N-((3-((5-chloro-4-((naphthalen-2-yl)amino))pyrimidin-2-yl)amino)-4-methoxyphenyl)-4-(morpholin-1-yl)-2-butenamide], the concentration for half-maximal inhibition (IC50) was found to be 0.0119 µM in assay [2], 0.567 µM in assay [3], 0.132 µM in assay [4] and 0.895 µM in assay [5].
The matching figures for `COc1ccc(NC(=O)/C=C/CN2CCN(C(C)=O)CC2)cc1Nc1ncc(Cl)c(Nc2ccc3ccccc3c2)n1` [CCB120029, (E)-N-((3-((5-chloro-4-((naphthalen-2-yl)amino))pyrimidin-2-yl)amino)-4-methoxyphenyl)-4-(4-acetylpiperazin-1-yl)-2-butenamide]: 0.0191 µM, 0.695 µM, 0.0994 µM and 1.05 µM.
On to `C=CC(=O)Nc1cccc(Nc2nc(Nc3ccc(N4CCN(C(C)=O)CC4)cc3OC)ncc2C(F)(F)F)c1` [CO1686, reference compound], for which the results for the half-maximal inhibitory concentration (IC50) in assay [1], in assay [4] and in assay [5] were 0.972 µM, 1.32 µM and 0.215 µM, respectively.
